Experimental findings from PubChem BioAssay AID179 (DTP/NCI, 2004) are described below.

Where “and” joins values, the source holds several entries; their conditions need not be identical. Equal values may be shown once. Calls of active or inactive are those of the source.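 The calls were made as follows: active = compounds giving half or more protection of infected cells from virus-caused growth loss, again on retest; inactive = the rest.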

This test relates to CEM cells HIV-1 protection, formazan growth assay. Nature of the test: NCI AIDS Antiviral Assay. The note with it: for IC50: measured here: growth of uninfected CEM cells. The essentials: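 Screen of anti-HIV-1 activity in human CEM cells using a formazan-based growth measurement at five drug concentrations. Hits with 50% or greater protection were repeated, and confirmation required reproducible complete protection.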

Usually EC50 stands for the concentration needed to bring the measured effect to its halfway point. As a reminder, the IC50 is the concentration at which inhibition is half-maximal. Take `O=C1N(CO)C2C(N1CO)N(CO)C(=O)N2CO` (stereo not given): the EC50 was over 200 µM; the half-inhibitory concentration (IC50) is 33.1 µM and 102 µM.

As for `C=C([C@@]1(O)C[C@H]2[C@H](CCC2(OC)OC)[C@@H]2c3ccccc3O[C@@H]21)[Si](C)(C)C`, the result was inactive.

As for `CCNC(=O)c1ccc(C)c(N=NN(C)C)c1`, the EC50 was over 288 µM and the half-maximal inhibitory concentration (IC50) was over 288 µM.

As for `O=S1(=O)c2ccccc2-c2nccc3ccnc1c23`, the result was inactive.

Take `C=CCCCC12CCCc3cccc(c31)NC2=O` (stereo not given): the EC50 is over 151 µM and the IC50 stood at 63.1 µM.

`COC(=O)C1C(C(=O)OC)C2N(c3ccccc3)C=NN2C1C(=O)c1ccccc1` (stereo not given): the EC50 is 182 µM and the 50% inhibitory concentration (IC50) was over 200 µM.

With `C[C@]12C[C@H](c3ccccc3)Nc3ccccc3N1C(c1ccccc1)=NO2`, the EC50 was over 200 µM and the half-maximal inhibitory concentration (IC50) was 36.3 µM.

Take `CCC(=O)CCC1=Nc2nnc(CCCCc3nnc4n3C(=O)C(CCC(=O)CC)=N4)n2C1=O`: the 50% effective concentration (EC50) was 427 µM and the IC50 is 537 µM.

As for `O=C(Cc1nc2ccc(C(=O)c3ccccc3)cc2[nH]c1=O)C(=O)Nc1ccccc1[N+](=O)[O-]`, the EC50 was over 79.4 µM and the IC50 is 51.3 µM.

As to `COc1ccc(/C=C/COC(C)=O)cc1OC`, the result was inactive.

For the compound `CCC1C(c2ccccc2)=CCC(C(=O)O)C1C` (stereo not given), the EC50 is over 200 µM and the 50% inhibitory concentration (IC50) was over 200 µM.

As for `COCC(OC)C(CC=C(C#N)C#N)OC` (stereo not given), the EC50 was over 44.7 µM and the IC50 is over 44.7 µM.

With `COC(=O)/C(C#N)=C\NC(=S)NNC(C)=O`, the EC50 is over 200 µM and the half-maximal inhibitory concentration (IC50) is over 200 µM.

For the compound `CCOC(=O)c1c(N)sc2c1C(C)(C(=O)OCC)CC2` (stereo not given), the EC50 was over 200 µM and the half-maximal inhibitory concentration (IC50) came to 141 µM.

Consider `CC(C)(CN1CCCCC1)C(=O)/C=C/c1c(Cl)cccc1Cl`, for which the EC50 was over 200 µM and the IC50 came out at 1.86 µM.

For the compound `O=C1c2cccn2-c2ccccc2SC1c1ccccc1` (stereo not given), the EC50 is over 200 µM and the IC50 was found to be 20.4 µM.

On to `O=[N+]([O-])c1cc(Cl)ccc1OCc1ccccc1`, for which the result was inactive.

Take `Cn1nc2ccc3nccc(N(CCO)CCO)c3c2n1`: the EC50 is over 631 µM and the concentration for half-maximal inhibition (IC50) is 31.6 µM.

Turning to `CC(C)CCC[C@@H](C)C1CCC2[C@@H]3CCC4CC(CCC=C(c5cc(Cl)c(OC(=O)c6ccccc6)c(C(=O)O)c5)c5cc(Cl)c(OC(=O)c6ccccc6)c(C(=O)O)c5)CC[C@]4(C)C3CC[C@@]21C` (stereo not given in full), the EC50 is over 200 µM and the IC50 is 141 µM.

As to `Cc1nc(C)c(C(=O)NNC(=O)c2ccccc2)cc1C(=O)NNC(=O)c1ccccc1`, the EC50 is over 200 µM and the half-inhibitory concentration (IC50) was over 200 µM.

Turning to `O=c1[nH]c(=O)c2[nH]c(Cl)nc2[nH]1`, the EC50 was over 28.2 µM and the concentration for half-maximal inhibition (IC50) is over 28.2 µM.

`CC1=C2CCC(O)CC2(C)C(O)C1C` (stereo not given): the result was inactive.

As for `CCn1c(=O)c2c3cc(OC(C)=O)ccc3oc2c2ccc(OC(C)=O)cc21`, the EC50 is over 200 µM and the half-inhibitory concentration (IC50) was 53.7 µM.

Regarding `CCOC(=O)CCC(=O)Oc1ccc2c(c1OC(=O)CCC(=O)OCC)C(=O)c1ccccc1C2=O`, the EC50 is over 87.1 µM and the IC50 amounted to 46.8 µM.

`CC1(C)CC2(C)CC1CC2NC(=O)CCN1CCOCC1` (stereo not given): the EC50 is over 851 µM and the IC50 is 676 µM.

On to `CCOC(=O)C(NC(C)=O)(Nc1ccc(S(N)(=O)=O)cc1)C(F)(F)F` (stereo not given), for which the EC50 was over 200 µM and the 50% inhibitory concentration (IC50) was over 200 µM.

On to `COc1cc(/C=C/C(=O)CC(=O)/C=C/c2ccc(O)cc2)ccc1O`, for which the EC50 was over 200 µM and the IC50 is 11.7 µM.

For `COc1cccc(/C=C/C(=O)c2sc(C(N)=S)nc2C)c1O`, the EC50 is over 11.2 µM and the IC50 was over 11.2 µM.

For `N.N.O=N[O-].O=N[O-].O=N[O-].O=N[O-].[Co+3].[Cs+]`, the result was inactive.

Regarding `COC(=O)CCC(=O)c1ccc2c(c1)CC1(C2)Cc2ccc3c(c2C1)CCCC3=O` (stereo not given), the EC50 is over 200 µM and the half-inhibitory concentration (IC50) worked out at 8.51 µM.

As for `CCCCC(CC)COC(=O)CC(C(=O)OCC(CC)CCCC)S(=O)(=O)O` (stereo not given) (tested in a mixture with another compound), the EC50 was over 200 µM and the IC50 is over 200 µM.

Regarding `O=[N+]([O-])c1ccc2cnn(CSP(=S)(c3ccccc3)c3ccccc3)c2c1`, the EC50 is over 200 µM and the IC50 was found to be 3.02 µM.

In the case of `O=[N+]([O-])c1cc([N+](=O)[O-])c(/C=C/c2ccc(Cl)c(Cl)c2)cc1/C=C/c1ccc(Cl)c(Cl)c1`, the EC50 is over 19.5 µM and the IC50 is over 19.5 µM.

For `O=C1NC(=O)C2C(=O)NC(=O)C1C2(c1ccccc1)c1cc[nH]c1` (stereo not given), the EC50 was over 22.4 µM and the half-maximal inhibitory concentration (IC50) worked out at 16.6 µM.

On to `CC1=N/C(=C/c2ccc3c(c2)OCO3)C(=O)O1`, for which the EC50 is over 155 µM and the IC50 turned out to be 105 µM.

On to `COc1cc(/C=C(\C#N)C(N)=C(C#N)C#N)cc(O)c1O`, for which the EC50 was over 47.9 µM and the IC50 was over 47.9 µM.

As to `Clc1ccc(C=NC23CC4CC(CC(C4)C2)C3)cc1Cl`, the EC50 was over 200 µM and the 50% inhibitory concentration (IC50) worked out at 95.5 µM.

`Cc1cc(S(=O)(=O)NC2=NC(c3ccccc3)c3cc(Cl)ccc3N2)c(S)cc1Cl` (stereo not given): the EC50 is over 200 µM and the 50% inhibitory concentration (IC50) was over 200 µM.

As for `O=C(NN1C(=O)C=CC1=O)c1ccccc1Nc1ccccc1C(=O)NN1C(=O)C=CC1=O`, the EC50 was 63.1 µM and the IC50 turned out to be 191 µM.

In the case of `O=c1[nH]c2ccccc2nc1/C=C/NC(=S)NCc1ccccc1`, the outcome was inactive.

Regarding `CC1(C)OCC[C@@H]1[Si](C)(C)C`, the result was inactive.

Consider `O=C(NCCCCCCNC(=O)n1cc(F)c(=O)[nH]c1=O)NCCCOCCOCCCNC(=O)C(O)C(O)C(O)C(O)CO` (stereo not given), for which the outcome was inactive.

As to `CCOC(=O)/C(N=Nc1ccc(-n2c(C)nc3ccc(Br)cc3c2=O)cc1)=C(/C)O`, the EC50 was over 200 µM and the IC50 was found to be 39.8 µM.

Turning to `CC(C)(C)OC(=O)NCCC(N)=S`, the EC50 was over 646 µM and the 50% inhibitory concentration (IC50) came out at 174 µM.

On to `Cc1cc(O)c(C=NC(=S)C(N)=S)c(=O)o1`, for which the EC50 was over 200 µM and the concentration for half-maximal inhibition (IC50) stood at 41.7 µM.

Consider `O=[N+]([O-])c1ccc(NC(=S)N/N=C(\c2ccccc2)c2ccccn2)cc1`, for which the EC50 is over 2 µM and the 50% inhibitory concentration (IC50) is over 2 µM.

As for `CCOP(=O)(CCP(=O)(OCC)OCC)OCC.C[CH2][Sn]([Cl])([Cl])[CH2]C`, the outcome was inactive.

Turning to `COc1ccccc1/C=c1\[nH]c(=O)/c(=C/c2ccccc2OC)[nH]c1=O`, the EC50 is over 28.2 µM and the IC50 was over 28.2 µM.

As for `CCOC(=O)c1nc2cc(F)c(N3CCOCC3)cc2[nH]c1=O`, the EC50 was over 200 µM and the IC50 came to 95.5 µM.

`CCOc1ccc(N=Nc2ccc3oc(=O)c(/C(C)=N\NC(=O)CC(=O)Nc4ccc(Cl)cc4)cc3c2)cc1`: the EC50 is over 13.2 µM and the half-maximal inhibitory concentration (IC50) was over 13.2 µM.

With `CCOC(=O)CC1=NC(C)(C)CC(C)O1` (stereo not given), the EC50 was over 200 µM and the IC50 is over 200 µM.

For `CCOP(=S)(N/N=C1/CCCC(C)C1)OCC` (stereo not given), the EC50 is over 200 µM and the 50% inhibitory concentration (IC50) is 102 µM.

For the compound `COC(=O)C1=C(C(=O)OC)NC2=C(C=N1)CCC2`, the EC50 was over 380 µM and the concentration for half-maximal inhibition (IC50) was over 380 µM.

For `Brc1ccc2c(-c3csc(-c4c[nH]c5cc(Br)ccc45)n3)c[nH]c2c1`, the EC50 was over 200 µM and the 50% inhibitory concentration (IC50) was 52.5 µM.

Consider `NCC=C1C2CC3CC(C2)CC1C3`, for which the result was inactive.

As to `O=S(=O)(OC1CC12CCCCC2c1ccccc1)c1ccccc1` (stereo not given), the EC50 was over 200 µM and the half-inhibitory concentration (IC50) is over 200 µM.

`CC(=O)NCC1OC2COC(c3ccccc3)OC2C(NC(=O)c2ccccc2)C1OC(=O)c1ccccc1` (stereo not given): the result was inactive.

Consider `O=C(O)C1CC2C3C=CC(C3)C2C1` (stereo not given) (tested in a mixture with another compound), for which the EC50 was over 64.6 µM and the half-inhibitory concentration (IC50) amounted to 45.7 µM.

Regarding `CC(C)=CCC/C(C)=C/CC/C(C)=C/Cc1c(O)c2ccccc2oc1=O`, the EC50 is over 186 µM and the half-maximal inhibitory concentration (IC50) was determined as 95.5 µM.

As to `O=C(NCCNCCNCCNC(=O)c1cc(-c2ccccc2)nc2ccccc12)c1cc(-c2ccccc2)nc2ccccc12`, the EC50 is over 20 µM and the IC50 turned out to be 3.31 µM.

Take `O=C(c1ccccc1)c1oc2ccc(Br)cc2c1-c1cnn(-c2ccccc2)c1`: the outcome was inactive.

With `O=C(c1ccco1)C1CC(c2ccc3ccccc3c2O)=NN1c1ccc([N+](=O)[O-])cc1[N+](=O)[O-]` (stereo not given), the EC50 is over 200 µM and the half-maximal inhibitory concentration (IC50) was 15.8 µM.

Compound `O=C(c1ccccc1)N1CCC(Nc2cccnc2)O1` (stereo not given) came in with an EC50 of over 200 µM and a concentration for half-maximal inhibition (IC50) of 105 µM.

For `CC(=O)Nc1cccc2[nH]c3ccccc3c(=O)c12`, the result was inactive.

On to `COc1ccc2c(c1)[n+]([O-])c(/C(C)=N/NC(N)=S)c(C)[n+]2[O-]`, for which the EC50 was over 209 µM and the half-inhibitory concentration (IC50) came to 102 µM.

With `Cc1nc(Nc2ccccc2)sc1C(=O)CC(=O)C(=O)Nc1c(C(C)C)cccc1C(C)C`, the EC50 is over 77.6 µM and the IC50 is over 77.6 µM.

`c1ccc(C[P+](c2ccccc2)(c2ccccc2)c2ccccc2)cc1`: the EC50 is over 200 µM and the IC50 turned out to be 3.89 µM.

`NS(=O)(=O)c1ccc(NC(=O)/C=C\C(=O)O)cc1`: the EC50 is over 200 µM and the IC50 was over 200 µM.

For the compound `O=C(CP(=O)(c1ccccc1)c1ccccc1)c1cccc(C(=O)CP(=O)(c2ccccc2)c2ccccc2)c1`, the EC50 is over 200 µM and the IC50 turned out to be 158 µM.

For `COc1c(O)c(O)cc2c1-c1ccc(OC)c(=O)cc1C(NC(C)=O)CC2` (stereo not given), the EC50 is over 200 µM and the IC50 worked out at 1.05 µM.

As to `O=C(Nc1nc(C23CC4CC(CC(C4)C2)C3)cs1)c1cc2cc([N+](=O)[O-])ccc2oc1=O`, the EC50 was over 200 µM and the IC50 worked out at 178 µM.

As to `CC(=O)[C@@H](C)C(=O)N1C(=O)OC[C@@]12[C@@H]1CC[C@@H](C1)C2(C)C`, the EC50 was over 200 µM and the IC50 was over 200 µM.
